The subject of data set [1] is mice. Put plainly: Protection vs. pentylenetetrazol clonic convulsions. Type of data set: in vivo. Conditions: Table I, 316 mg/kg test compound, oral in sesame oil, pentylenetetrazol 80 mg/kg s.c., n.p. = no protection observed; for responders at 316 mg/kg: Mus musculus, read-out: Protection vs. Pentylenetetrazol (numbers of mice protected from clonic convulsion/number tested) (converted). How it is done:
(§1) ^1 The test silane was administered orally in sesame oil vehicle at
^3 Pentylenetetrazol 80 mg/kg s.c. produces clonic convulsions in 90%
of control mice. Values in table are the numbers of mice protected from
clonic convulsion/number tested when dosed with 316 mg/kg test compound.

The subject of data set [2] is mice. The data set is described as follows: Electroshock test (Maximal Electroshock Test, M.E.S.), inhibition of tonic extension of hind limbs. Type of data set: in vivo, mice (adult male, Carworth CF 1 strain). Conditions: Table I, oral, sesame oil; for ED50: Mus musculus, read-out: MES ED50. The procedure:
The electroshock test procedure was used to determine anticonvulsant activities of diphenylmethylsilanol. Adult male mice (Carworth CF 1 strain) were utilized as test animals. […] Seizure protection was scored as inhibition of tonic extension. Groups of mice (six/group) were dosed orally with varying amounts of diphenylmethylsilanol in a sesame oil suspension. The dosages ranged from 10 to 1000 mg./kg. and the train of electric shocks was applied 2, 4 and 6 hours after dosing. The effective dose to prevent convulsions in half the animals (ED50) was determined at 2, 4 and 6 hours to be 52, 63, 100 mg/kg, respectively, and the 95 percent CI (confidence interval) was 23 to 114 mg./kg.; 27 to 141 mg./kg.; 47 to 212 mg./kg.
The electric shock test procedure was also used to determine anticonvulsant activities of phenylmethyldimethoxysilane. Adult male mice (Carworth CF 1 strain) were utilized as test animals. […] Seizure protection was scored as in Example 1. Groups of mice ten/group) were dosed orally with varying amounts of phenylmethyldimethoxysilane in a sesame oil solution. The dosages ranged from 25 to 200 mg./kg. and the train of electric shocks was applied 1/2, 1, 11/2, 2 and 3 hours after dosing. The effective dose to prevent convulsions in half the animals (ED50) was determined at 1/2, 1, 11/2, 2 and 3 hours to be 52, 86, 64, 82 and 90 mg./kg., respectively. Utilizing the same electroshock test procedure as set forth in the first paragraph of this example, groups of mice (ten/group) were dosed intraperitoneally with varying amounts of phenylmethyldimethoxysilane in a sesame oil solution. The dosages ranged from 25 to 200 mg./kg. and the train of electric shocks was applied 1/2, 1, 11/2, 2 and 3 hours after dosing. The effective dose to prevent convulsions in half the animals (ED50) was determined at 1/2, 1, 11/2, 2 and 3 hours to be 45, 65, 52, 51 and 70 mg./kg., respectively.
The electric shock test used in Example 1 and 2 was used in determining the anticonvulsant activities of several other silanes.
as §1
^2 M.E.S. - Maximal Electroshock Test - ED50 is dose calculated
to protect 50% of mice from tonic extensor convulsion. The dosages ranged
(Protection in the maximal electroshock model is a classic sign of anticonvulsant action.)

Data set [3] relates to mice. Put plainly: Potentiation of hexobarbital sleep time (relative sedative activity). Particulars: Table I; 316 mg/kg test compound oral, 90 minutes before hexobarbital 100 mg/kg i.p. Type of data set: in vivo, mice (male, Carworth CF1 strain). How it is done:
As a test of relative sedative activity of the various silanes, the ability of each to potentiate the action of hexobarbital was studied. For each silane, two groups of male mice (Carworth CF1 strain) were utilized as test animals. Two groups of mice (six/group) were used, one group was orally dosed with 316 mg./kg. of the test silane in sesame oil carrier 90 minutes before administration of hexobarbital. Hexobarbital was administered by intraperitoneal injection of 100 mg./kg. in saline carrier. The time from loss of the righting reflex to recovery of the righting reflex was recorded as sleep time. Potentiation of hexobarbital of the test silane is the ratio of the mean sleep time by the group of test animals dosed with the silane divided by the mean sleep time of the control group not dosed with silane.
^4 Potentiation of hexobarbital - values are the ratios of sleep time
of animals dosed with 316 mg/kg test compound plus 100 mg/kg hexobarbital
to the sleep times of animals dosed with hexobarbital alone.

The mark [4] stands for this setting: 2 hours after dosing, n.p. = no protection observed.

Where two headings read alike, the source gives them in different places. Some results are limits rather than exact numbers.

The results in this text go back to patent US4039666A, “Anticonvulsant phenylsilanes” (Dow Corning Corporation, priority 1976, dated 1977).

The ED50 is the midpoint of the dose-response relation. `C[Si](C)(O)c1ccccc1` [drawing 8; R1=CH3; R2=CH3; X=OH]: the responders at 316 mg/kg in the data set on mice [1] is 33.3%. Further, the ED50 with mice [2] (setting [4]) came out at 118 mg/kg; in the data set on mice [2] (4 hours after dosing), 135 mg/kg; with mice [2] (6 hours after dosing), 110 mg/kg. In the data set on mice [3], the “Potentiation of Hexobarbital (ratio of sleep time with test compound to hexobarbital alone)” value is reported as 2.7.

For `CCO[Si](C)(C)c1ccccc1` [drawing 8; R1=CH3; R2=CH3; X=OC2 H5], in the data set on mice [1], the responders at 316 mg/kg was 33.3%. The ED50 with mice [2] (setting [4]) came to 200 mg/kg; with mice [2] (4 hours after dosing), 213 mg/kg; in the data set with mice [2] (6 hours after dosing) it was 350 mg/kg. Moreover, in the data set with mice [3], the “Potentiation of Hexobarbital (ratio of sleep time with test compound to hexobarbital alone)” value is listed as more than 1.3.

`O[Si](c1ccccc1)(c1ccccc1)c1ccccc1` [drawing 9; X=OH]: the “Protection vs. Pentylenetetrazol (numbers of mice protected from clonic convulsion/number tested)” value in the data set with mice [1] is reported as “n.p”. For the same molecule, the 50% effective dose (ED50) came out at 105 mg/kg in the data set on mice [2] (setting [4]), 60 mg/kg in the data set on mice [2] (4 hours after dosing) and 110 mg/kg in the data set with mice [2] (6 hours after dosing). In the data set with mice [3], the “Potentiation of Hexobarbital (ratio of sleep time with test compound to hexobarbital alone)” value is on record as 1.9.

`CC(=O)O[Si](C)(OC(C)=O)c1ccccc1` [drawing 10; R1=CH3; X=drawing 11]: the “Protection vs. Pentylenetetrazol (numbers of mice protected from clonic convulsion/number tested)” value in the data set with mice [1] is reported as “n.p”. Further, the figures for the ED50 in the data set with mice [2] (setting [4]), in the data set on mice [2] (4 hours after dosing) and with mice [2] (6 hours after dosing) were 200 mg/kg, 125 mg/kg and 142 mg/kg, respectively. The “Potentiation of Hexobarbital (ratio of sleep time with test compound to hexobarbital alone)” value with mice [3] turned out to be 1.8.

With `C[Si](O)(O)c1ccccc1` [drawing 10; R1=CH3; X=OH, phenylmethylsilanediol], the responders at 316 mg/kg in the data set with mice [1] was 33.3%. In addition, the median effective dose (ED50) was determined as 80 mg/kg with mice [2] (setting [4]), 110 mg/kg with mice [2] (4 hours after dosing) and 80 mg/kg in the data set on mice [2] (6 hours after dosing). Besides, the “Potentiation of Hexobarbital (ratio of sleep time with test compound to hexobarbital alone)” value in the data set on mice [3] was 1.8.

For the molecule `CO[Si](OC)(OC)c1ccccc1` [drawing 12; X=OCH3], in the data set with mice [1], the “Protection vs. Pentylenetetrazol (numbers of mice protected from clonic convulsion/number tested)” value is “n.p”. Also, the 50% effective dose (ED50) in the data set on mice [2] (setting [4]) was 560 mg/kg; in the data set on mice [2] (4 hours after dosing) it was 300 mg/kg; with mice [2] (6 hours after dosing), 160 mg/kg. The “Potentiation of Hexobarbital (ratio of sleep time with test compound to hexobarbital alone)” value with mice [3] worked out at 1.3.

For `CC(C)O[Si](OC(C)C)(OC(C)C)c1ccccc1` [drawing 12; X=OCH(CH3)2], the “Protection vs. Pentylenetetrazol (numbers of mice protected from clonic convulsion/number tested)” value with mice [1] is on record as “n.p”. For the same molecule, the figures for the ED50 in the data set on mice [2] (4 hours after dosing) and in the data set with mice [2] (6 hours after dosing) were more than 1000 mg/kg and 800 mg/kg, respectively. Also, the “MES ED50” value in the data set with mice [2] (setting [4]) is on record as “n.p”. The “Potentiation of Hexobarbital (ratio of sleep time with test compound to hexobarbital alone)” value in the data set with mice [3] worked out at 2.1.

In the case of `CCO[Si](C)(OCC)c1ccccc1` [drawing 10; R1=CH3; X=OC2 H5], the “Protection vs. Pentylenetetrazol (numbers of mice protected from clonic convulsion/number tested)” value in the data set with mice [1] is “n.p”. For the same molecule, the ED50 in the data set with mice [2] (setting [4]) stood at 180 mg/kg; in the data set with mice [2] (4 hours after dosing), 31 mg/kg; in the data set with mice [2] (6 hours after dosing) it was 220 mg/kg. In addition, the “Potentiation of Hexobarbital (ratio of sleep time with test compound to hexobarbital alone)” value in the data set on mice [3] is reported as 1.1.

As for `CC[Si](O)(O)c1ccccc1` [drawing 10; R1=C2 H5; X=OH], the responders at 316 mg/kg in the data set on mice [1] is 100%. The ED50 in the data set on mice [2] (setting [4]) came to 120 mg/kg; in the data set on mice [2] (4 hours after dosing), 160 mg/kg. Further, in the data set on mice [3], the “Potentiation of Hexobarbital (ratio of sleep time with test compound to hexobarbital alone)” value was determined as 1.7.
